These molecules were tested on HCV genotype 1b replicon (assay: HCV replicon assay (HCV 1b_Huh-Luc/Neo-ET cell line, luciferase readout)). Conditions: Hepatitis C virus; bicistronic genotype 1b replicon in Huh 7 cells, 72 h incubation, luciferase enzyme activity; read-out: Inhibition of HCV genotype 1b.
Type: cell-based
Summary of the method: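 Huh 7 cells carrying a bicistronic genotype 1b luciferase replicon treated with compound in triplicate for 72 h. Luciferase activity expressed as percent of untreated control; EC50 from four-parameter curve fit, determined several times.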
O=C(N[C@@H](C(=O)N1CCC[C@H]1C(=O)Nc1ccc(-c2ccc(-c3cnc([C@@H]4COCCN4C(=O)[C@H](NC(=O)C4CC4)c4ccccc4)[nH]3)cc2)cc1)c1ccccc1)C1CC1 [Compound 11] was tested, and the EC50 was < 1 nM.
In the case of CC(C)[C@@H](NC(=O)OC(C)(C)C)C(=O)N1CCC[C@H]1C(=O)Nc1ccc(-c2ccc(-c3cnc([C@@H]4CCCN4C(=O)[C@H](NC(=O)OC(C)(C)C)C(C)C)[nH]3)cc2)cc1 [Compound 15], the EC50 is reported as 1 to 9.9 nM.
For COC(=O)N[C@H](C(=O)N1CCC[C@H]1CNC(=O)c1ccc(-c2ccc(-c3cnc([C@@H]4CCCN4C(=O)[C@@H](NC(=O)OC)C(C)C)[nH]3)cc2)cc1)C(C)C [Compound 99], the EC50 was < 1 nM.
COC(=O)N[C@H](C(=O)N1CCC[C@H]1C(=O)Nc1ccc(-c2ccc3nc([C@@H]4CCCN4C(=O)[C@@H](NC(=O)OC)C(C)C)[nH]c3c2)cc1)C(C)C [Compound 73] gave an EC50 of 1 to 9.9 nM.
In the case of CC(C)[C@@H](NC(=O)C1CC1)C(=O)N1CCC[C@H]1C(=O)Nc1ccc(-c2ccc(-c3cnc([C@@H]4COCCN4C(=O)[C@H](NC(=O)C4CC4)C(C)C)[nH]3)cc2)cc1 [Compound 20], the EC50 is reported as 1 to 9.9 nM.
With C[C@@H](NC(=O)[C@@H]1CCCN1C(=O)[C@H](NC(=O)N1CCN(C)CC1)c1ccccc1)c1ccc(-c2ccc(-c3cnc([C@@H]4CCCN4C(=O)[C@H](NC(=O)N4CCN(C)CC4)c4ccccc4)[nH]3)cc2)cc1 [Compound 42] the EC50 was 1 to 9.9 nM.
COC(=O)N[C@@H](C)C(=O)N1CCC[C@H]1C(=O)NCc1ccc(-c2ccc(-c3cnc([C@@H]4CCCN4C(=O)[C@H](C)NC(=O)OC)[nH]3)cc2)cc1 [Compound 104] was tested, and the EC50 was 10 to 999 nM.
In the case of CC(C)[C@@H](NC(=O)C1CC1)C(=O)N1CCOC[C@H]1C(=O)Nc1ccc(-c2ccc(-c3cnc([C@@H]4CCCN4C(=O)[C@H](NC(=O)C4CC4)C(C)C)[nH]3)cc2)cc1 [Compound 23], the EC50 is reported as 1 to 9.9 nM.
In the case of CC(C)(C)OC(=O)N[C@@H](C(=O)N1CCOC[C@H]1C(=O)Nc1ccc(-c2ccc(-c3cnc([C@@H]4COCCN4C(=O)[C@H](NC(=O)OC(C)(C)C)c4ccccc4)[nH]3)cc2)cc1)c1ccccc1 [Compound 16], the EC50 is reported as < 1 nM.

Source: US20120040977A1, “INHIBITORS OF HCV NS5A” (PRESIDIO PHARMACEUTICALS, INC., priority 2009, published 2012)
